Tests used:
TK2 = biological target: T1, TK2 (Homo sapiens, UniProt O00142); set-up: unit not given here; settings: substrate activity; literature (Johansson et al.; Eriksson et al.; Wang et al.), source per Table 3; cited from earlier work
T1 sequence (O00142 34-265): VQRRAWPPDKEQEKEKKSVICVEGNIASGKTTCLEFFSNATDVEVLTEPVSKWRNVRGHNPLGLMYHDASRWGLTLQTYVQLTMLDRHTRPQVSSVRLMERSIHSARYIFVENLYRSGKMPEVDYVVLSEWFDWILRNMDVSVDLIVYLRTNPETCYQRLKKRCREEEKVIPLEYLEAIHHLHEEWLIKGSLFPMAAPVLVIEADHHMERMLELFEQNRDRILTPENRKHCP

[1] = biological target: deoxycytidine kinase (dCK) (Homo sapiens, UniProt P27707); settings: cited from earlier work; for dCK: substrate activity, literature (Johansson et al.; Eriksson et al.; Wang et al.), source per Table 3
Chain of deoxycytidine kinase (dCK) (P27707 whole entry, species assumed): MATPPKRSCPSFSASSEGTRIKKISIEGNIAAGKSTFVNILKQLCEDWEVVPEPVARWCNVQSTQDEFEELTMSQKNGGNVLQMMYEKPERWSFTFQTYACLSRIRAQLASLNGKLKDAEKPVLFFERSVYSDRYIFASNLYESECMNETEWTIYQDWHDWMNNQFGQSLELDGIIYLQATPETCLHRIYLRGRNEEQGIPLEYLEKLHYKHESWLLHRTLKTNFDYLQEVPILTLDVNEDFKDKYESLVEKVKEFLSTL

tubulin = assay: Fluorescence-based microtubule polymerization assay (MPA); type: biochemical; settings: mean percentage of paclitaxel or vinblastine activity; 0.75-10 micromolar
Source text: Drug-linker constructs may further be screened using functional assays predictive of biological activity. […] Tubulin assembly or inhibition thereof may be monitored by fluorescence using the CytoDYNAMIX Screen™ 10 kit available from Cytoskeleton (1830 S. Acoma St., Denver, Colo.). […] Emission is monitored at 405 nm with excitation at 360 nm. […] Tubulin assembly or inhibition may also be monitored by light scattering which is approximated by the apparent absorption at 350 nm. For paclitaxel drug conjugates BSA is employed to prevent aggregation and glycerol, which is a tubulin polymerization enhancer, is omitted from the kit to increase the signal to noise ratio.
The assay kit (#BK011) was purchased from Cytoskeleton (Denver, Colo.). The assays were carried out according to the manufacturer's instructions, except that 1 mg/ml BSA (Sigma #A3059) was included in all assays. […] Parent drugs and conjugates were tested at 0.75, 1.5, 3 and 10 micromolar final concentration and results represent a comparison of conjugate and parent drug curves obtained from the linear range of the dose responses.

Molecule	TK2 (TK2)	dCK [1]	also measured
C[C@H]1C=C[C@@H](CO)O1	<1	4	–
4-deacetyl-3-de-(methoxycarbonyl)-vinblastin-3-yl-N-{N′-Boc-2-[2-[2-[2-ethoxy]ethoxy]ethoxy]ethylamino}-aminocarbonyl) [VBL-3Am-PEG(11)-NH(B)]	–	–	Ave. MPA Act (tubulin): B (B=60-100)
CC#Cc1cn([C@@H]2O[C@H](CO)[C@@H](O)[C@@H]2O)c(=O)[nH]c1=O	30	–	–
CC[C@]1(O)C[C@@H]2CN(CCc3c([nH]c4ccccc34)[C@@](C(=O)OC)(c3cc4c(cc3OC)N(C)[C@H]3[C@@](O)(C(=O)NCCCCCCCCCCCCN)[C@H](O)[C@]5(CC)C=CCN6CC[C@]43[C@@H]65)C2)C1 [VBL-3Am-ALK(12)-NH2]	–	–	Ave. MPA Act (tubulin): B (B=60-100)
O=c1[nH]c(=O)n([C@@H]2O[C@H](CO)[C@@H](O)[C@@H]2O)cc1C1CC1 [R2 = cyclopropyl, R5 = OH]	15	–	–
CC[C@]1(O)C[C@@H]2CN(CCc3c([nH]c4ccccc34)[C@@](C(=O)OC)(c3cc4c(cc3OC)N(C)[C@H]3[C@@](O)(C(=O)OC)[C@H](O)[C@]5(CC)C=CCN6CC[C@]43[C@@H]65)C2)C1 [Desacetyl vinblastine]	–	–	Ave. MPA Act (tubulin): C (C>100)
Cc1cn([C@@H]2C[C@H](O)[C@@H](CO)O2)c(=O)[nH]c1=O [α-D-Thy]	2.4	–	–
Nc1ccn([C@H]2C[C@H](F)[C@@H](CO)O2)c(=O)n1 [R4 = H, R5 = H, R3 = F]	<1	60	–
Cc1cn([C@H]2CC[C@@H](CO)O2)c(=O)[nH]c1=O [β-ddT(3′-deoxyThy), 3′-deoxyThy]	3.2	–	–
Nc1nc(Cl)nc2c1ncn2C1CC(CO)C(CO)O1 (centres unmarked)	–	40	–
CC(=O)O[C@@]12CO[C@@H]1C[C@H](O)[C@@]1(C)C(=O)[C@H](OC(=O)CCCCCCNC(=O)OCc3ccccc3)C3=C(C)[C@@H](OC(=O)[C@H](O)[C@@H](NC(=O)c4ccccc4)c4ccccc4)C[C@@](O)([C@@H](OC(=O)c4ccccc4)[C@H]21)C3(C)C [PXL-10Es-Alk(6)-NH(Z)]	–	–	Ave. MPA Act (tubulin): A (A<60)
CC[C@]1(O)C[C@@H]2CN(CCc3c([nH]c4ccccc34)[C@@](C(=O)OC)(c3cc4c(cc3OC)N(C)[C@H]3[C@@](O)(C(=O)NCCCCCCCCN)[C@H](O)[C@]5(CC)C=CCN6CC[C@]43[C@@H]65)C2)C1 [VBL-3Am-ALK(8)-NH2]	–	–	Ave. MPA Act (tubulin): B (B=60-100)
(±)-Cytallene	<1	20	–
Nc1ccn([C@@H]2O[C@H](CO)[C@@H](O)[C@H]2O)c(=O)n1 [R4 = OH, R5 = H, R3 = OH]	<1	–	–
CC(=O)O[C@H]1C(=O)[C@]2(C)[C@@H](OC(=O)NCCCCCCn3c(=O)c(C)cn([C@@H]4C[C@H](O)[C@@H](CO)O4)c3=O)C[C@H]3OC[C@@]3(OC(C)=O)[C@H]2[C@H](OC(=O)c2ccccc2)[C@]2(O)C[C@H](OC(=O)[C@H](O)[C@@H](NC(=O)c3ccccc3)c3ccccc3)C(C)=C1C2(C)C [PXL-7Ca-ALK(6)-N3-αTHY]	–	–	Ave. MPA Act (tubulin): B (B=60-100)
Nc1ccn(C2CC(O)C(CO)O2)c(=O)n1 [α-L-dC]	0.4	–	–
Nc1cn([C@@H]2O[C@H](CO)[C@@H](O)[C@H]2O)c(=O)[nH]c1=O [R2 = NH2, R4 = H, R3 = OH, 5-amino-uridine]	–	–	activity towards dCK [1]: 17%
CC(=O)O[C@H]1C(=O)[C@]2(C)[C@@H](OC(=O)NCCCCCCn3c(=O)c(C)cn([C@H]4C[C@H](O)[C@@H](COP(=O)(O)O)O4)c3=O)C[C@H]3OC[C@@]3(OC(C)=O)[C@H]2[C@H](OC(=O)c2ccccc2)[C@]2(O)C[C@H](OC(=O)[C@H](O)[C@@H](NC(=O)c3ccccc3)c3ccccc3)C(C)=C1C2(C)C [PXL-7Ca-ALK(6)-N3-PhTHY]	–	–	Ave. MPA Act (tubulin): B (B=60-100)
Nc1nc(=O)n([C@H]2C[C@H](O)[C@@H](CO)O2)cc1F [R2 = F, X = C]	90	20	–
CC[C@]1(O)C[C@@H]2CN(CCc3c([nH]c4ccccc34)[C@@](C(=O)OC)(c3cc4c(cc3OC)N(C)[C@H]3[C@@](O)(C(=O)NCCCCCCn5c(=O)c(C)cn([C@H]6C[C@H](O)[C@@H](COP(=O)(O)O)O6)c5=O)[C@H](O)[C@]5(CC)C=CCN6CC[C@]43[C@@H]65)C2)C1 [VBL-3Am-ALK(6)-N3-PhTHY]	–	–	Ave. MPA Act (tubulin): C (C>100)
O=c1ccn([C@@H]2O[C@H](CO)[C@@H](O)[C@H]2O)c(=O)[nH]1 [R2 = H, R5 = OH (araU), araU]	20	–	–
Nc1ccn([C@@H]2C[C@@H](O)[C@H](CO)O2)c(=O)n1 [β-L-dC]	70	–	–
CC(=O)O[C@@]12CO[C@@H]1C[C@H](O)[C@@]1(C)C(=O)[C@H](OC(=O)CCCCCN)C3=C(C)[C@@H](OC(=O)[C@H](O)[C@@H](NC(=O)c4ccccc4)c4ccccc4)C[C@@](O)([C@@H](OC(=O)c4ccccc4)[C@H]21)C3(C)C [PXL-10Es-ALK(5)-NH2]	–	–	Ave. MPA Act (tubulin): B (B=60-100)

Molecule	TK2 (TK2)	dCK [1]	also measured
Nc1ccn([C@@H]2C[C@H](O)[C@@H](CO)O2)c(=O)n1 [α-D-dC]	1.8	–	–
CC[C@]1(O)C[C@@H]2CN(CCc3c([nH]c4ccccc34)[C@@](C(=O)OC)(c3cc4c(cc3OC)N(C)[C@H]3[C@@](O)(C(=O)NCCCCCCN)[C@H](O)[C@]5(CC)C=CCN6CC[C@]43[C@@H]65)C2)C1 [VBL-3Am-ALK(6)-NH2]	–	–	Ave. MPA Act (tubulin): C (C>100)
Nc1nc(=O)n([C@H]2C[C@H](O)[C@@H](CO)O2)cc1Br [R2 = Br, X = C]	40	20	–
Nc1ccn([C@@H]2O[C@H](CO)[C@@H](O)[C@H]2F)c(=O)n1 [R4 = F, R5 = H, R3 = OH]	30	300	–
Nc1ccn([C@H]2CC[C@@H](CO)O2)c(=O)n1 [β-ddC(2′,3′-dideoxyC), 2′,3′-dideoxyC]	–	7.1	–
CC[C@]1(O)C[C@@H]2CN(CCc3c([nH]c4ccccc34)[C@@](C(=O)OC)(c3cc4c(cc3OC)N(C)[C@H]3[C@@](O)(C(=O)NCCCCCCCCCCCCNC(=O)OC(C)(C)C)[C@H](O)[C@]5(CC)C=CCN6CC[C@]43[C@@H]65)C2)C1 [VBL-3Am-ALK(12)-NH(B)]	–	–	Ave. MPA Act (tubulin): A (A<60)
Nc1nc(=O)n([C@H]2C[C@H](O)[C@@H](CO)O2)cc1C1CC1 [R2 = cyclopropyl, X = C]	<1	20	–
Cc1cn([C@H]2C[C@H](O)[C@@H](CO)O2)c(=O)nc1N [R2 = CH3, X = C]	40	–	–
Nc1ccn([C@H]2CC[C@@H](CO)O2)c(=O)n1 [R4 = H, R5 = H, R3 = H (ddCy, Zalcitabine)]	<1	30	–
Nc1nc(=O)n([C@H]2C[C@H](O)[C@@H](CO)O2)cc1-c1ccncc1 [R2 = 4-pyridyl, X = C]	2	5	–
Nc1nc(=O)n([C@H]2C[C@H](O)[C@@H](CO)O2)cc1-c1cccnc1 [R2 = 3-pyridyl, X = C]	<1	4	–
O=c1[nH]c(=O)n([C@@H]2O[C@H](CO)[C@@H](O)[C@@H]2O)cc1-c1cccs1 [R2 = 2-thienyl, R5 = OH]	6	–	–
CC(=O)O[C@H]1C(=O)[C@]2(C)[C@@H](OC(=O)NCCCCCCN)C[C@H]3OC[C@@]3(OC(C)=O)[C@H]2[C@H](OC(=O)c2ccccc2)[C@]2(O)C[C@H](OC(=O)[C@H](O)[C@@H](NC(=O)c3ccccc3)c3ccccc3)C(C)=C1C2(C)C [PXL-7Ca-ALK(6)-NH2]	–	–	Ave. MPA Act (tubulin): A (A<60)
Cc1cn([C@H]2C[C@@H](O)[C@H](CO)O2)c(=O)[nH]c1=O [α-L-Thy]	1.5	–	–
Nc1nc(=O)n([C@H]2C[C@H](O)[C@@H](CO)O2)cc1-c1cccs1 [R2 = 2-thienyl, X = C]	30	2	–
CC(=O)O[C@H]1C(=O)[C@]2(C)[C@@H](OC(=O)CCCCCN)C[C@H]3OC[C@@]3(OC(C)=O)[C@H]2[C@H](OC(=O)c2ccccc2)[C@]2(O)C[C@H](OC(=O)[C@H](O)[C@@H](NC(=O)c3ccccc3)c3ccccc3)C(C)=C1C2(C)C [PXL-7Es-ALK(5)-NH2]	–	–	Ave. MPA Act (tubulin): A (A<60)
Nc1nc(=O)n([C@H]2C[C@H](O)[C@@H](CO)O2)cc1-c1ccoc1 [R2 = 3-furyl, X = C]	50	<1	–
Cc1cn([C@@H]2C[C@@H](O)[C@H](CO)O2)c(=O)[nH]c1=O [β-L-Thy]	60	0.8	–
Cc1cn(C2CCC(CO)O2)c(=O)[nH]c1=O (stereo not drawn) [α-ddT]	9.8	–	–
Nc1nc(=O)n([C@H]2C[C@H](O)[C@@H](CO)O2)cc1-c1ccsc1 [R2 = 3-thienyl, X = C]	30	<1	–
Cc1cn([C@@H]2O[C@H](CO)[C@@H](O)[C@@H]2O)c(=O)[nH]c1=O [R2 = CH3, R5 = OH (araT), araT]	60	–	–
Nc1nc(=O)n([C@H]2C[C@H](O)[C@@H](CO)O2)cc1-c1ccccn1 [R2 = 2-pyridyl, X = C]	7	<1	–
Nc1nc(=O)n([C@H]2C[C@H](O)[C@@H](CO)O2)cc1-c1ccco1 [R2 = 2-furyl, X = C]	10	3	–
